This note sets out measurements from paper PMC8155022 (Scientific Reports, 2021).

One data set relates to rat whole blood. The data set can be described thus: in vitro whole blood assay, IL-17A production. The settings on record: rat whole blood diluted 1:4; read-out: IC50, inhibition of IL-17A production. The class given is cell-based. As to the method:
Two days later, IL-17A levels were measured in culture supernatant samples (see supplementary materials and methods).

The target of a further data set is T1, GAL2 (h) (Homo sapiens, UniProt O43603).
T1 construct: purchased Cerep (receptors, ion channels, transporters); Eurofins Panlabs (kinases)
T1 sequence (O43603 whole entry): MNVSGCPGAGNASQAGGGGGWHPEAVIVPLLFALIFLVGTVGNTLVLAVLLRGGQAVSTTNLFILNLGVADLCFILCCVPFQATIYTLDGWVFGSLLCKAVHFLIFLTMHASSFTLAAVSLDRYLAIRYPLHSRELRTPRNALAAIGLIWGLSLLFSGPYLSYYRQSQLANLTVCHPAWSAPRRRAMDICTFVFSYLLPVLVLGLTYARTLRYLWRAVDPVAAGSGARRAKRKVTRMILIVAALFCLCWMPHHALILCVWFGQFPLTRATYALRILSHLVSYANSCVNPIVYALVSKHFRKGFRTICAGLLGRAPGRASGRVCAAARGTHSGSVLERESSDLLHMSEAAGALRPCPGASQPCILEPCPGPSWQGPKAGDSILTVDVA
The data set can be described thus: Cerep panel. In kind it is binding.

The target of the next data set is T2, EGFR(h) (Homo sapiens, UniProt P00533).
T2 construct: purchased Cerep (receptors, ion channels, transporters); Eurofins Panlabs (kinases)
T2 sequence (P00533 25-1210): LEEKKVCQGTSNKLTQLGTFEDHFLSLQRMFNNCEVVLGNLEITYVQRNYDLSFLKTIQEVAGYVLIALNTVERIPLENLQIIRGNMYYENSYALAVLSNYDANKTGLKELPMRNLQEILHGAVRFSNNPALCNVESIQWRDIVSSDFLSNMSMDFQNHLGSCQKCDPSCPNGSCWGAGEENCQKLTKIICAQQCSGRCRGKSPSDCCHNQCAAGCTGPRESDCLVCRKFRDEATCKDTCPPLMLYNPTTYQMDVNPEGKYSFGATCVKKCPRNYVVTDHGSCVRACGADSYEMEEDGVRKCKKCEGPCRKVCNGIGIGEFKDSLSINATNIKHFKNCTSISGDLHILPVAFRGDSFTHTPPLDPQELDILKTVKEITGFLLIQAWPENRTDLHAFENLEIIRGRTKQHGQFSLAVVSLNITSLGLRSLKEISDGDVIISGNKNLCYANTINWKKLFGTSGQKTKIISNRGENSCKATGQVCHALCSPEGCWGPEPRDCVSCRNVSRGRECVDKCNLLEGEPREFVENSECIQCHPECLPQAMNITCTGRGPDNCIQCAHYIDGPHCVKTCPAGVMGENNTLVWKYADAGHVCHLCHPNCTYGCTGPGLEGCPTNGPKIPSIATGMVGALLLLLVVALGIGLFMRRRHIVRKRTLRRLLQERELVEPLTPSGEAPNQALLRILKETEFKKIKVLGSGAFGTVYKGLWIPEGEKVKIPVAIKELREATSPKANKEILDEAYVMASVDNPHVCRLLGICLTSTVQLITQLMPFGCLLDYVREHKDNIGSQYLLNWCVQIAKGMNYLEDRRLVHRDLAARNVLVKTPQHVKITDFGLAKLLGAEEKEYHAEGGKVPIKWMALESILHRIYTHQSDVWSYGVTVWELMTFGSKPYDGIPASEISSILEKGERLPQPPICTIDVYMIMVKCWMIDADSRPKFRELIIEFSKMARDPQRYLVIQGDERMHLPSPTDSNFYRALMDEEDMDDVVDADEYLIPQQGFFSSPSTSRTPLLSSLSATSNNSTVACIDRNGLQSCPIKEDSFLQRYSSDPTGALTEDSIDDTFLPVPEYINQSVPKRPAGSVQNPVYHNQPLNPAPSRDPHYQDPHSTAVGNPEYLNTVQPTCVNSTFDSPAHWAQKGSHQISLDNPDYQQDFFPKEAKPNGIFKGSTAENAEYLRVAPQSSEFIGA
The data set can be described thus: Kinase panel. The class given is biochemical.

A further data set deals with T3, ALK4(h) (Homo sapiens, UniProt P36896).
T3 construct: purchased Cerep (receptors, ion channels, transporters); Eurofins Panlabs (kinases)
T3 sequence (P36896 24-505): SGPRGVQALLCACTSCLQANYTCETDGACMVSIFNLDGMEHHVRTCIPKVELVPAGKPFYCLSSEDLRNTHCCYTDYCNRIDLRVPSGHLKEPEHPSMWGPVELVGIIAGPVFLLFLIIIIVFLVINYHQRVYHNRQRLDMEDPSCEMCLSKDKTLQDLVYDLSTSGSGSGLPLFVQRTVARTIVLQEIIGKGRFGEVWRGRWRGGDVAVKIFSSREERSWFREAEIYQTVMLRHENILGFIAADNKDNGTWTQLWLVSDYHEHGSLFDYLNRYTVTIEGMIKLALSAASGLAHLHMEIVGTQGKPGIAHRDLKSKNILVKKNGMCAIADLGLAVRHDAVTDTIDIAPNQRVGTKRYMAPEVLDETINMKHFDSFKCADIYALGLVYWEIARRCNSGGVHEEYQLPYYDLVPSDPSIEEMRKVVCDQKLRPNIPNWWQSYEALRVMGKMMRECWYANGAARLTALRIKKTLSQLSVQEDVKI
As to the kind of experiment: Kinase panel. The class given is biochemical.

The target in data set [1] is hGABAAα1β2γ2-gated Cl− channel (Homo sapiens, UniProt P14867+P18507+P47870). The data set can be described thus: follow-up functional study. In kind it is cell-based. The settings on record: read-out: IC50 in follow-up functional studies.
The test system of data set [2] is bacterial reverse mutation assay (AMES test). The data set can be described thus: bacterial reverse mutation assay (AMES test). The class given is cell-based. The settings on record: in vitro.
The next data set concerns the target T4, Plk3(h) (Homo sapiens, UniProt Q9H4B4).
T4 construct: purchased Cerep (receptors, ion channels, transporters); Eurofins Panlabs (kinases)
The data set can be described thus: Kinase panel. In kind it is biochemical.

A further data set addresses T5, SAPK3(h) (Homo sapiens, UniProt P53778).
T5 construct: purchased Cerep (receptors, ion channels, transporters); Eurofins Panlabs (kinases)
As to the kind of experiment: Kinase panel. The class given is biochemical.

For the next data set, the target named is T6, CHK1(h) (Homo sapiens, UniProt O14757).
T6 construct: purchased Cerep (receptors, ion channels, transporters); Eurofins Panlabs (kinases)
T6 sequence (O14757 whole entry): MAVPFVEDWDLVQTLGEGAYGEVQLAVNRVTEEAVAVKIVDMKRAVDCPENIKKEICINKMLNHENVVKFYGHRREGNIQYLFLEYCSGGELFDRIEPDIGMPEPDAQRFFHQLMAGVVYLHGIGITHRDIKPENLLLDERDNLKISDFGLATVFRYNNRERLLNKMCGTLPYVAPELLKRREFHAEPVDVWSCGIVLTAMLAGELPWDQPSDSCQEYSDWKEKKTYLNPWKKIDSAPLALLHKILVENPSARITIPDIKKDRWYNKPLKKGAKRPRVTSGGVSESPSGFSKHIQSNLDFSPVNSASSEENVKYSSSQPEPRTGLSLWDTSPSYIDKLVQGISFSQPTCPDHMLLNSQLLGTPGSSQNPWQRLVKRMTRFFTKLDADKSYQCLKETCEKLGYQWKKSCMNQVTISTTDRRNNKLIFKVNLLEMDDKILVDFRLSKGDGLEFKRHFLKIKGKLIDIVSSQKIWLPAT
As to the kind of experiment: Kinase panel. The class given is biochemical.

The next data set concerns the target T7, Plk1(h) (Homo sapiens, UniProt P53350).
T7 construct: purchased Cerep (receptors, ion channels, transporters); Eurofins Panlabs (kinases)
As to the kind of experiment: Kinase panel. The class given is biochemical.

Another data set deals with T8, NE-T transporter (h) (Homo sapiens, UniProt P23975).
T8 construct: purchased Cerep (receptors, ion channels, transporters); Eurofins Panlabs (kinases)
T8 sequence (P23975 whole entry): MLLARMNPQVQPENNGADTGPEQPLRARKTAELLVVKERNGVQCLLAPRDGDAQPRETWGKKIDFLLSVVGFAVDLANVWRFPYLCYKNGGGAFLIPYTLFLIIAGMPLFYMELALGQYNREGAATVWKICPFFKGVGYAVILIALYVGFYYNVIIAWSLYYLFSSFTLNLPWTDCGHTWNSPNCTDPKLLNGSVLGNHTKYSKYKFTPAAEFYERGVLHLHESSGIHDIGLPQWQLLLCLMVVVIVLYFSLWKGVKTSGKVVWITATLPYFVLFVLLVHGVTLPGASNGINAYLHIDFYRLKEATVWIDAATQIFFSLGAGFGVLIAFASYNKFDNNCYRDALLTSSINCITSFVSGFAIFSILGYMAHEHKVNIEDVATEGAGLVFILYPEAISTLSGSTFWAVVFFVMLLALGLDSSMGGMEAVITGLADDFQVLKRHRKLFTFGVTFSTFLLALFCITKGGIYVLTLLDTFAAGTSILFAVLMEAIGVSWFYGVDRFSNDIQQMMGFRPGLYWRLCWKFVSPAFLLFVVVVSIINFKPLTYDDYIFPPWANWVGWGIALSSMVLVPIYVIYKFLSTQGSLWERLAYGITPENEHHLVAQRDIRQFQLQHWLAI
As to the kind of experiment: Cerep panel. The class given is binding.

For a further data set, the target named is T9, IGF-1R(h) (Homo sapiens, UniProt P08069).
T9 construct: purchased Cerep (receptors, ion channels, transporters); Eurofins Panlabs (kinases)
The data set can be described thus: Kinase panel. In kind it is biochemical.

The next data set addresses T10, VDR (Homo sapiens, UniProt P11473).
T10 construct: expressed in transfected cells
The data set can be described thus: nuclear receptor cellular GAL4 reporter assay. The class given is cell-based. The note with it: agonist and antagonist mode; read-out: potency in agonist and antagonist mode. For orientation: A reporter such as luciferase makes a cellular process visible.

T5 sequence (P53778 whole entry): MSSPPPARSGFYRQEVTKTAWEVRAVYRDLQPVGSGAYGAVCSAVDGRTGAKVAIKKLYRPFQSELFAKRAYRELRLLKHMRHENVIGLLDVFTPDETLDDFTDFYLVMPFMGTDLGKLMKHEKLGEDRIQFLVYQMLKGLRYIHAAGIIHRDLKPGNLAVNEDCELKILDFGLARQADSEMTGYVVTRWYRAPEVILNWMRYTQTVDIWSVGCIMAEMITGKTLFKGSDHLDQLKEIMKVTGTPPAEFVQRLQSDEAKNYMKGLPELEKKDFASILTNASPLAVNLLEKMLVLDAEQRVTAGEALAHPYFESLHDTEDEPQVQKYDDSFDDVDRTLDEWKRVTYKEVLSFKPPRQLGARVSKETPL
T4 sequence (Q9H4B4 whole entry): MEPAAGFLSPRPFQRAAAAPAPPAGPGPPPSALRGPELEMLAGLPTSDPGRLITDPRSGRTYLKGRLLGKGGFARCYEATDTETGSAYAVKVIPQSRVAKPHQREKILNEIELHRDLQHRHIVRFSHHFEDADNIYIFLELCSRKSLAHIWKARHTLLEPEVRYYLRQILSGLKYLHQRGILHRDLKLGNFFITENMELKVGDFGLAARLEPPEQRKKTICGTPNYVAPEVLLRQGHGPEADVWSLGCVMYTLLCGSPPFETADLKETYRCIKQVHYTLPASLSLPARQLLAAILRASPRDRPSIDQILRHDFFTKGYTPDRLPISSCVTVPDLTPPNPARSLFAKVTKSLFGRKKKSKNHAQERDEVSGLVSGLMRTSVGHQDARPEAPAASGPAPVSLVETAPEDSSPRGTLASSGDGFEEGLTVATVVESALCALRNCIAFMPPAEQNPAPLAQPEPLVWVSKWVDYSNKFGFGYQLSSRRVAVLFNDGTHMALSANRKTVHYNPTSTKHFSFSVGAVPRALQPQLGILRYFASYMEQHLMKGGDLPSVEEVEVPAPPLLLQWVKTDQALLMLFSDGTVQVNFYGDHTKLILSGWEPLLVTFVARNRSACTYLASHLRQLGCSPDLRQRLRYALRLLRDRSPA
T7 sequence (P53350 whole entry): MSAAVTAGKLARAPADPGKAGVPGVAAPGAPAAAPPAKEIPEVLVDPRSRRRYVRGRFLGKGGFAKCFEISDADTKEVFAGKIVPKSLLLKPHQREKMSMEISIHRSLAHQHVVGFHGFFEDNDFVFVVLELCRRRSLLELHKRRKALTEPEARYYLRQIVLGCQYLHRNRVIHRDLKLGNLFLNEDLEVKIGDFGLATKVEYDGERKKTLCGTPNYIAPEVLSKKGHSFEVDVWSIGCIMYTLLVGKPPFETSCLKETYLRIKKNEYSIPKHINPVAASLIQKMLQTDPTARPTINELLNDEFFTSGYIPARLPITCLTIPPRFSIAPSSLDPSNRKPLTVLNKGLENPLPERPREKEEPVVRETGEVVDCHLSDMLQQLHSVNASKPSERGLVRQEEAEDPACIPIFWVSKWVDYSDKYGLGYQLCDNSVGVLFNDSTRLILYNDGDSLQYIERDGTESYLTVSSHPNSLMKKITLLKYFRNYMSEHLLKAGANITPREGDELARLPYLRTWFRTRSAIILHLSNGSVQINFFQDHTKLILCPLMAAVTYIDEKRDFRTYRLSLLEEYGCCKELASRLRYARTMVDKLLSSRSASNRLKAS
Protocol for ALK4(h): 28 GPCRs were evaluated through cAMP or calcium FLIPR assays[67]. A panel of 52 different receptors, ion channels and transporters was tested by Cerep, Inc. (Redmond, WA). Kinase selectivity was conducted by Eurofins Panlabs Inc (St Charles, MO).
Protocol for CHK1(h): (§1) Kinase selectivity was conducted by Eurofins Panlabs Inc (St Charles, MO).
Protocol for EGFR(h): as §1
Protocol for GAL2 (h): (§2) A panel of 52 different receptors, ion channels and transporters was tested by Cerep, Inc. (Redmond, WA).
Protocol for IGF-1R(h): as §1
Protocol for NE-T transporter (h): as §2
Protocol for Plk1(h): as §1
Protocol for Plk3(h): as §1
Protocol for SAPK3(h): as §1

Turning to `CC1CCCN1C(=O)c1nc(C(=O)NCC(C)(C)O)sc1-c1ccc(C(O)(C(F)(F)F)C(F)(F)F)c(Cl)c1Cl` (stereo not shown) [JNJ-61803534], the results for the IC50 (in the data set with rat whole blood; in data set [1]; on VDR) were 120 ± 10 nM, above 30000 nM and above 1500 nM, respectively. For the same compound, the inhibition at 1 µM against GAL2 (h) and at NE-T transporter (h) was below 10% each time. Besides, the inhibition at 10 µM against GAL2 (h) and against NE-T transporter (h) was below 10% each time. The activity at 1 µM at EGFR(h) came to 100%; at ALK4(h), 104%; on Plk3(h), 120%; on SAPK3(h) it was 106%; at CHK1(h) it was 97%; at Plk1(h), 111%. On IGF-1R(h), the activity at 1 µM stood at 95%. The activity at 10 µM at EGFR(h) is 101%; at ALK4(h), 108%; at Plk3(h) it was 114%; at SAPK3(h), 112%; on CHK1(h) it was 132%; on Plk1(h), 104%. Further, at IGF-1R(h), the activity at 10 µM stood at 106%. Further, the genetic toxicity result in data set [2] was “negative”.
